In brackets after ≈: the same amount, converted by molar mass. Activity calls are given as the source filed them. The rule behind the calls is not given here.
Assays:
Candida albicans [1] = experiment: Increase in antifungal activity against Candida albicans K1 biofilm cells assessed as 50 percent reduction of optical density in presence of beta 1,3 glucanase after 48 hrs by XTT assay; type: functional
Candida albicans [2] = experiment: Increase in antifungal activity against Candida albicans K1 biofilm cells assessed as 80 percent reduction of optical density in presence of beta 1,3 glucanase after 48 hrs by XTT assay; type: functional
Candida albicans [3] = experiment: Antifungal activity against planktonic Candida albicans K1; type: functional
Candida albicans [4] = experiment: Effect on biofilm cell viability of Candida albicans K1 at 1000 ug/ml; type: functional, organism-based
Candida albicans [5] = experiment: Antifungal activity against planktonic Candida albicans K1 in presence of biofilm material after 48 hrs by CLSI M27 A micro-broth method; type: functional; details: K1, 48 h
Candida albicans [6] = experiment: Antifungal activity against planktonic Candida albicans K1 in presence of laminarin after 48 hrs by CLSI M27 A micro-broth method; type: functional; details: K1, 48 h
Candida albicans [7] = experiment: Increase in drug binding to Candida albicans K1 biofilm cell walls, supernatant and matrix as compared to respective planktonic controls; type: functional, organism-based
Candida albicans [8] = experiment: Antifungal activity against Candida albicans K1 biofilms in in-vivo rat catheter model in presence of beta 1,3-glucanase; type: functional, organism-based

Compound	fractional inhibitory concentration index (FICI) (Candida albicans [1])	fractional inhibitory concentration index (FICI) (Candida albicans [2])	MIC (Candida albicans [3])	Activity (Candida albicans [4])	MIC (Candida albicans [5])	MIC (Candida albicans [6])	Activity (Candida albicans [7])	Activity (Candida albicans [8])
C[C@@H]1[C@H](O)[C@@H](C)/C=C/C=C/C=C/C=C/C=C/C=C/C=C/[C@H](O[C@@H]2O[C@H](C)[C@@H](O)[C@H](N)[C@@H]2O)C[C@@H]2O[C@](O)(C[C@@H](O)C[C@@H](O)[C@H](O)CC[C@@H](O)C[C@@H](O)CC(=O)O[C@H]1C)C[C@H](O)[C@H]2C(=O)O [AMPHOTERICIN B]	0.2	0.21	–	–	–	–	–	–
OC(Cn1cncn1)(Cn1cncn1)c1ccc(F)cc1F [FLUCONAZOLE]	0.31	0.1	0.5 µg/mL (≈ 1.63 µM)	inactive	> 128 µg/mL	> 128 µg/mL	Active	Active

Reference: ChEMBL document CHEMBL1142202, “Putative role of beta-1,3 glucans in Candida albicans biofilm resistance” (2007)
